Laboratory results from patent US20210186960A1, “MODULATORS OF INDOLEAMINE 2,3-DIOXYGENASE” (GLAXOSMITHKLINE INTELLECTUAL PROPERTY DEVELOPMENT LIMITED, priority 2017, published 2021).
Where two headings read alike, the source gives them in different places.

Experiments:
[1] = Plasma PK and tissue distribution after oral dosing of INTERMEDIATE C4 (3 mg/kg); assay type: in vivo; conditions: PO 3 mg/kg INTERMEDIATE C4, male Wistar Han rat; for Kp at 1 h / Kp at 4 h / Kp at 8 h / Kp / concentration at 1 h / concentration at 4 h / concentration at 8 h: male, Wistar Han, rat, po
Method: Tissue Distribution of drug intermediate C4 from oral dosing of C4 and of intermediate C4 from oral dosing of example 7 in rats
• Wistar Han rat, 185-197 g, male, N=8, purchased from Beijing Vital River Co. LTD. Qualification No.: SCXK(J) 2016-0011 11400700240027. Fasted overnight and fed 4 hr post dose. PO: 3 mg/kg (10 mL/kg) via oral gavage(N=8). Sampling at 1, 4, 8 and 24 hr , 4 time points, terminal bleeding for plasma, liver, lymph nodes and spleen collected at each time point.

[2] = Rat oral PK studies of prodrugs at 5 mg/kg; assay type: in vivo; conditions: after PO dose of 5 mg/kg example 7 in male Wistar Han rat; analyte as labelled
Method: Rat oral PK studies of prodrugs at 5 mg/kg dose (solution in 100% (40 mg oleic acid+25mg Tween 80+2 mL of PBS/fresh) at 0.5 mg/mL).

For `CC(C)CN(c1ccc([C@H](C)CC(=O)O)cc1Nc1cnc(Cl)cn1)C1CCOCC1` [intermediate C4], the “Liver to plasma ratio individual” value ([1]; 1 hr, 3 mg/kg) was 8.11, the “Lymph node to plasma ratio individual” value ([1]; 1 hr, 3 mg/kg) was 0.254 and the “Spleen to plasma ratio individual” value ([1]; 1 hr, 3 mg/kg) was 0.197. For the same molecule, the “liver Concentration individual” value ([1]; 1 hr, 3 mg/kg) was 2570 ng/g, the “lymph node Concentration individual” value ([1]; 1 hr, 3 mg/kg) was 80.4 ng/g and the “plasma Concentration individual” value ([1]; 1 hr, 3 mg/kg) was 317 ng/mL. The “spleen Concentration individual” value ([1]; 1 hr, 3 mg/kg) was 62.4 ng/g, the “Liver to plasma ratio individual” value ([1]; 4 hr, 3 mg/kg) was 14.7 and the “Lymph node to plasma ratio individual” value ([1]; 4 hr, 3 mg/kg) was 0.905. The “Spleen to plasma ratio individual” value ([1]; 4 hr, 3 mg/kg) was 0.333, the “liver Concentration individual” value ([1]; 4 hr, 3 mg/kg) was 898 ng/g and the “lymph node Concentration individual” value ([1]; 4 hr, 3 mg/kg) was 55.4 ng/g. For the same molecule, the “plasma Concentration individual” value ([1]; 4 hr, 3 mg/kg) was 61.2 ng/mL, the “spleen Concentration individual” value ([1]; 4 hr, 3 mg/kg) was 20.4 ng/g and the “spleen Concentration Mean” value ([1]; 8 hr) was “BQL”. For the same molecule, the “spleen Concentration individual” value ([1]; 8 hr) was “BQL”, the “Liver to plasma ratio individual” value ([1]; 8 hr, 3 mg/kg) was 13.2 and the “liver Concentration individual” value ([1]; 8 hr, 3 mg/kg) was 299 ng/g. For the same molecule, the “lymph node Concentration individual” value ([1]; 8 hr, 3 mg/kg) was “BQL”, the “plasma Concentration individual” value ([1]; 8 hr, 3 mg/kg) was 22.7 ng/mL and the “liver Concentration Mean” value ([1]; 24 hr) was “BQL”. For the same molecule, the “liver Concentration individual” value ([1]; 24 hr) was “BQL”, the “lymph node Concentration Mean” value ([1]; 24 hr) was “BQL” and the “lymph node Concentration individual” value ([1]; 24 hr) was “BQL”. The “plasma Concentration Mean” value ([1]; 24 hr) was “BQL”, the “plasma Concentration individual” value ([1]; 24 hr) was “BQL” and the “spleen Concentration Mean” value ([1]; 24 hr) was “BQL”. For the same molecule, the “spleen Concentration individual” value ([1]; 24 hr) was “BQL”, the AUC(0-t) ([1]; liver, read-out: AUClast (liver)) was 10200 ng·h/mL and the AUC(0-t) ([1]; lymph node, read-out: AUClast (lymph node)) was 381 ng·h/mL. It also gave a Kp at 1 h ([1]; liver / plasma, 3 mg/kg, 1 hr, read-out: Liver to plasma ratio Mean) of 9.31, a Kp at 1 h ([1]; liver / plasma, 3 mg/kg, 1 hr, read-out: Liver to plasma ratio individual) of 10.5 and a Kp at 4 h ([1]; liver / plasma, 3 mg/kg, 4 hr, read-out: Liver to plasma ratio Mean) of 13.7. The Kp at 4 h ([1]; liver / plasma, 3 mg/kg, 4 hr, read-out: Liver to plasma ratio individual) was 12.7, the Kp at 8 h ([1]; liver / plasma, 3 mg/kg, 8 hr, read-out: Liver to plasma ratio Mean) was 14.6 and the Kp at 8 h ([1]; liver / plasma, 3 mg/kg, 8 hr, read-out: Liver to plasma ratio individual) was 16. The Kp ([1]; liver / plasma, 3 mg/kg, read-out: AUCliver/AUCplasma) was 10.7, the concentration at 1 h ([1]; liver, 3 mg/kg, 1 hr, read-out: liver Concentration Mean) was 3130 ng/g and the concentration at 1 h ([1]; liver, 3 mg/kg, 1 hr, read-out: liver Concentration individual) was 3690 ng/g. It also gave a concentration at 4 h ([1]; liver, 3 mg/kg, 4 hr, read-out: liver Concentration Mean) of 883 ng/g, a concentration at 4 h ([1]; liver, 3 mg/kg, 4 hr, read-out: liver Concentration individual) of 868 ng/g and a concentration at 8 h ([1]; liver, 3 mg/kg, 8 hr, read-out: liver Concentration Mean) of 420 ng/g. For the same molecule, the concentration at 8 h ([1]; liver, 3 mg/kg, 8 hr, read-out: liver Concentration individual) was 540 ng/g, the Kp at 1 h ([1]; lymph node / plasma, 3 mg/kg, 1 hr, read-out: Lymph node to plasma ratio Mean) was 0.293 and the Kp at 1 h ([1]; lymph node / plasma, 3 mg/kg, 1 hr, read-out: Lymph node to plasma ratio individual) was 0.333. The Kp at 4 h ([1]; lymph node / plasma, 3 mg/kg, 4 hr, read-out: Lymph node to plasma ratio Mean) was 0.716, the Kp at 4 h ([1]; lymph node / plasma, 3 mg/kg, 4 hr, read-out: Lymph node to plasma ratio individual) was 0.526 and the Kp at 8 h ([1]; lymph node / plasma, 3 mg/kg, 8 hr, read-out: Lymph node to plasma ratio Mean) was 0.353. It also gave a Kp at 8 h ([1]; lymph node / plasma, 3 mg/kg, 8 hr, read-out: Lymph node to plasma ratio individual) of 0.353, a Kp ([1]; lymph node / plasma, 3 mg/kg, read-out: AUClimphnode/AUCplasma) of 0.401 and a concentration at 1 h ([1]; lymph node, 3 mg/kg, 1 hr, read-out: lymph node Concentration Mean) of 98.7 ng/g. The concentration at 1 h ([1]; lymph node, 3 mg/kg, 1 hr, read-out: lymph node Concentration individual) was 117 ng/g, the concentration at 4 h ([1]; lymph node, 3 mg/kg, 4 hr, read-out: lymph node Concentration Mean) was 45.7 ng/g and the concentration at 4 h ([1]; lymph node, 3 mg/kg, 4 hr, read-out: lymph node Concentration individual) was 35.9 ng/g. For the same molecule, the concentration at 8 h ([1]; lymph node, 3 mg/kg, 8 hr, read-out: lymph node Concentration Mean) was 11.9 ng/g, the concentration at 8 h ([1]; lymph node, 3 mg/kg, 8 hr, read-out: lymph node Concentration individual) was 11.9 ng/g and the concentration at 1 h ([1]; plasma, 3 mg/kg, 1 hr, read-out: plasma Concentration Mean) was 334 ng/mL. For the same molecule, the concentration at 1 h ([1]; plasma, 3 mg/kg, 1 hr, read-out: plasma Concentration individual) was 351 ng/mL, the concentration at 4 h ([1]; plasma, 3 mg/kg, 4 hr, read-out: plasma Concentration Mean) was 64.7 ng/mL and the concentration at 4 h ([1]; plasma, 3 mg/kg, 4 hr, read-out: plasma Concentration individual) was 68.2 ng/mL. The concentration at 8 h ([1]; plasma, 3 mg/kg, 8 hr, read-out: plasma Concentration Mean) was 28.2 ng/mL, the concentration at 8 h ([1]; plasma, 3 mg/kg, 8 hr, read-out: plasma Concentration individual) was 33.7 ng/mL and the concentration at 1 h ([1]; spleen, 3 mg/kg, 1 hr, read-out: spleen Concentration Mean) was 63.9 ng/g. For the same molecule, the concentration at 1 h ([1]; spleen, 3 mg/kg, 1 hr, read-out: spleen Concentration individual) was 65.3 ng/g, the concentration at 4 h ([1]; spleen, 3 mg/kg, 4 hr, read-out: spleen Concentration Mean) was 19.9 ng/g and the concentration at 4 h ([1]; spleen, 3 mg/kg, 4 hr, read-out: spleen Concentration individual) was 19.3 ng/g. It also gave a Kp at 1 h ([1]; spleen/plasma, 3 mg/kg, 1 hr, read-out: Spleen to plasma ratio Mean) of 0.191, a Kp at 1 h ([1]; spleen/plasma, 3 mg/kg, 1 hr, read-out: Spleen to plasma ratio individual) of 0.186 and a Kp at 4 h ([1]; spleen/plasma, 3 mg/kg, 4 hr, read-out: Spleen to plasma ratio Mean) of 0.308. The Kp at 4 h ([1]; spleen/plasma, 3 mg/kg, 4 hr, read-out: Spleen to plasma ratio individual) was 0.283, the Kp ([1]; spleen/plasma, 3 mg/kg, read-out: AUCspleen/AUCplasma) was 0.166 and the AUC(0-inf) ([1]; plasma, mean) was 1030 ng·h/mL. For the same molecule, the Cmax ([1]; plasma, mean) was 334 ng/mL, the Tmax ([1]; plasma, mean) was 1 h and the AUC(0-t) ([1]; plasma, mean, read-out: AUClast) was 951 ng·h/mL. It also gave a half-life ([1]; plasma, mean, read-out: Terminal t1/2 (converted)) of 2.01 h, an AUC(0-t) ([1]; spleen, read-out: AUClast (spleen)) of 157 ng·h/mL and a DNAUC0_20 [2] of 126.6 ng·h/mL.
